Assay results taken from US6087355A, “Cephalosporin antibiotics” (Microcide Pharmaceuticals, Inc., priority 1996, dated 2000).
Counter-ions that a name gives are not always drawn.

Tests used:
E. faecium VanA(Van^R) = assay: In vitro MIC, agar dilution; type: cell-based; details: Enterococcus faecium, read-out: minimum inhibitory concentration (MIC)
Method in brief: (§1)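 Agar dilution, Mueller-Hinton; drug 128 → ≤0.25 μg/mL two-fold, duplicates. Inoculum ~10^4 cfu/spot (log phase). 35-36 °C, 16-20 h. MIC = lowest conc. with no growth.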

E. faecalis VanB(Van^R) = assay: In vitro MIC, agar dilution; type: cell-based; details: Enterococcus faecalis, read-out: minimum inhibitory concentration (MIC)
Method in brief: as §1

[1] = tested on: S. aureus 76(Meth^R)(lac^+); assay: In vitro MIC, agar dilution; type: cell-based; details: Staphylococcus aureus, read-out: minimum inhibitory concentration (MIC)
Method in brief: as §1

E. coli ATCC 25992 = assay: In vitro MIC, agar dilution; type: cell-based; details: Escherichia coli, ATCC25992, read-out: minimum inhibitory concentration (MIC)
Method in brief: as §1

S. aureus ATCC 29213 = assay: In vitro MIC, agar dilution; type: cell-based; details: Staphylococcus aureus, ATCC29213, read-out: minimum inhibitory concentration (MIC)
Method in brief: as §1

[2] = tested on: S. haemolyticus 05(Meth^R); assay: In vitro MIC, agar dilution; type: cell-based; details: Staphylococcus haemolyticus, read-out: minimum inhibitory concentration (MIC)
Method in brief: as §1

[3] = tested on: S. aureus Spain #356(Meth^R); assay: In vitro MIC, agar dilution; type: cell-based; details: Staphylococcus aureus, read-out: minimum inhibitory concentration (MIC)
Method in brief: as §1

[4] = tested on: S. aureus ATCC 33593(Meth^R); assay: In vitro MIC, agar dilution; type: cell-based; details: Staphylococcus aureus, ATCC33593, read-out: minimum inhibitory concentration (MIC)
Method in brief: as §1

E. faecium ATCC 35667 = assay: In vitro MIC, agar dilution; type: cell-based; details: Enterococcus faecium, ATCC35667, read-out: minimum inhibitory concentration (MIC)
Method in brief: as §1

[5] = tested on: S. aureus PC1(Meth^S)(lac^+); assay: In vitro MIC, agar dilution; type: cell-based; details: Staphylococcus aureus, read-out: minimum inhibitory concentration (MIC)
Method in brief: as §1

E. faecalis ATCC 29212 = assay: In vitro MIC, agar dilution; type: cell-based; details: Enterococcus faecalis, ATCC29212, read-out: minimum inhibitory concentration (MIC)
Method in brief: as §1

P. aeruginosa ATCC 27853 = assay: In vitro MIC, agar dilution; type: cell-based; details: Pseudomonas aeruginosa, ATCC27853, read-out: minimum inhibitory concentration (MIC)
Method in brief: as §1

E. faecium A491(Amp^R) = assay: In vitro MIC, agar dilution; type: cell-based; details: Enterococcus faecium, read-out: minimum inhibitory concentration (MIC)
Method in brief: as §1

[6] = tested on: S. aureus Col8A(Meth^S)(lac^-); assay: In vitro MIC, agar dilution; type: cell-based; details: Staphylococcus aureus; S. aureus Col8A(Meth^S)(lac^-); read-out: minimum inhibitory concentration (MIC)
Method in brief: (§2)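 Two-fold dilutions (128 to ≤0.25 μg/mL, in duplicate) were poured into Mueller-Hinton agar. Log-phase broth cultures were spot-inoculated at about 10^4 cfu per spot and incubated 35-36°C for 16-20 hours; the MIC was the lowest concentration inhibiting growth. Col is a high-level PBP2a producer; Col 8A is its isogenic PBP2a-lacking partner.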

[7] = tested on: S. aureus Col(Meth^R)(lac^-); assay: In vitro MIC, agar dilution; type: cell-based; details: Staphylococcus aureus, read-out: minimum inhibitory concentration (MIC)
Method in brief: as §2

[8] = tested on: S. aureus strain ATCC 13709 (methicillin-susceptible); assay: Murine model for lethal bacteremic peritonitis; type: in vivo, female Swiss-Webster mice; details: Staphylococcus aureus, ATCC13709, SC, 72 h
Method in brief: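 Female Swiss-Webster mice were challenged IP with an LD100 inoculum in 7% hog gastric mucin, then given test drug subcutaneously in twofold increments (0.01–512 mg/kg) as two equal doses at challenge and 2 h later, 10 mice per group. Survival was scored at 72 h; PD50 (total mg/kg) was derived by probit.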

[9] = tested on: S. aureus ATCC 13709(Meth^S); assay: In vitro MIC, agar dilution; type: cell-based; details: Staphylococcus aureus, ATCC13709, S. aureus ATCC 13709(Meth^S); read-out: minimum inhibitory concentration (MIC)
Method in brief: as §1

`N=C(N)SCc1cnccc1SC1=C(C(=O)O)N2C(=O)[C@@H](NC(=O)Cc3ccccc3)[C@H]2SC1` [Cmpd 1, (7R)-7-[(phenylacetyl)amino]-3-(3-isothioureidomethylpyrid-4-ylthio)-3-cephem-4-carboxylate, trifluoroacetic acid salt] was tested. Which MIC (E. faecium VanA(Van^R)) did it give?
The MIC was 8 µg/mL.

And the MIC (E. faecalis VanB(Van^R))?
Its MIC is 4 µg/mL.

What about the MIC [1] of the same compound?
The MIC was 8 µg/mL.

What about the MIC (E. coli ATCC 25992) of the same compound?
Its MIC is > 32 µg/mL.

What about the MIC (S. aureus ATCC 29213) of the same compound?
The MIC was 0.13 µg/mL.

What about the MIC [2] of the same compound?
The MIC was 16 µg/mL.

What about the MIC [3] of the same compound?
Its MIC is 8 µg/mL.

What about the MIC [4] of the same compound?
Its MIC is 8 µg/mL.

What about the MIC (E. faecium ATCC 35667) of the same compound?
The MIC was 2 µg/mL.

And the MIC [5]?
Its MIC is 1 µg/mL.

What about the MIC (E. faecalis ATCC 29212) of the same compound?
Its MIC is 1 µg/mL.

And the MIC (P. aeruginosa ATCC 27853)?
Its MIC is > 32 µg/mL.

What about the MIC (E. faecium A491(Amp^R)) of the same compound?
The MIC was > 32 µg/mL.

What about the MIC [6] of the same compound?
The MIC was ≤ 0.06 µg/mL.

What about the MIC [7] of the same compound?
The MIC was 4 µg/mL.

What about the responders at 0.156 mg/kg ([8]; Dose 0.156 mg/kg, read-out: Survivors) of the same compound?
The responders at 0.156 mg/kg was 20%.

And the responders at 0.3125 mg/kg ([8]; Dose 0.3125 mg/kg, read-out: Survivors)?
Its responders at 0.3125 mg/kg is 50%.

And the responders at 0.625 mg/kg ([8]; Dose 0.625 mg/kg, read-out: Survivors)?
The responders at 0.625 mg/kg was 60%.

And the responders at 1.25 mg/kg ([8]; Dose 1.25 mg/kg, read-out: Survivors (converted))?
The responders at 1.25 mg/kg was 80%.

And the responders at 2.5 mg/kg ([8]; Dose 2.5 mg/kg, read-out: Survivors)?
The responders at 2.5 mg/kg was 100%.

What about the ED50 ([8]; two equal doses, IP challenge, read-out: ED50) of the same compound?
The ED50 was 0.39 mg/kg.

How did the MIC (E. faecium VanA(Van^R)) turn out when `N=C(N)SCc1nnsc1SC1=C(C(=O)O)N2C(=O)[C@@H](NC(=O)Cc3ccccc3)[C@H]2SC1` [Cmpd 2, (7R)-7-[(phenylacetyl)amino]-3-(4-isothioureidomethyl-1,2,3-thiadiazol-5-ylthio)-3-cephem-4-carboxylate, trifluoroacetic acid salt] was run?
The MIC was 4 µg/mL.

What about the MIC (E. faecalis VanB(Van^R)) of the same compound?
The MIC was 0.5 µg/mL.

What about the MIC [1] of the same compound?
Its MIC is 4 µg/mL.

And the MIC (E. coli ATCC 25992)?
The MIC was 16 µg/mL.

What about the MIC (S. aureus ATCC 29213) of the same compound?
The MIC was ≤ 0.06 µg/mL.

And the MIC [2]?
Its MIC is 4 µg/mL.

What about the MIC [3] of the same compound?
The MIC was 4 µg/mL.

What about the MIC [4] of the same compound?
Its MIC is 4 µg/mL.

And the MIC (E. faecium ATCC 35667)?
Its MIC is 1 µg/mL.

What about the MIC [5] of the same compound?
The MIC was 0.5 µg/mL.

What about the MIC (E. faecalis ATCC 29212) of the same compound?
Its MIC is 0.5 µg/mL.

And the MIC (P. aeruginosa ATCC 27853)?
The MIC was > 32 µg/mL.

And the MIC (E. faecium A491(Amp^R))?
The MIC was > 32 µg/mL.

And the MIC [6]?
The MIC was ≤ 0.06 µg/mL.

What about the MIC [7] of the same compound?
Its MIC is 1 µg/mL.

`N=C(N)SCc1ncsc1SC1=C(C(=O)O)N2C(=O)[C@@H](NC(=O)Cc3ccccc3)[C@H]2SC1` [Cmpd 5, (7R)-7-[(phenylacetyl)amino]-3-(4-isothioureidomethylthiazol-5-ylthio)-3-cephem-4-carboxylate, trifluoroacetic acid salt] was tested. Which MIC (E. faecium VanA(Van^R)) did it give?
Its MIC is 32 µg/mL.

What about the MIC (E. faecalis VanB(Van^R)) of the same compound?
The MIC was 4 µg/mL.

And the MIC [1]?
The MIC was 16 µg/mL.

What about the MIC (E. coli ATCC 25992) of the same compound?
Its MIC is > 32 µg/mL.

And the MIC (S. aureus ATCC 29213)?
The MIC was 0.13 µg/mL.

And the MIC [2]?
Its MIC is 16 µg/mL.

And the MIC [3]?
Its MIC is 16 µg/mL.

And the MIC [4]?
The MIC was 16 µg/mL.

And the MIC [9]?
Its MIC is ≤ 0.06 µg/mL.

And the MIC (E. faecium ATCC 35667)?
Its MIC is 4 µg/mL.

What about the MIC [5] of the same compound?
Its MIC is 0.25 µg/mL.

What about the MIC (E. faecalis ATCC 29212) of the same compound?
Its MIC is 2 µg/mL.

What about the MIC (P. aeruginosa ATCC 27853) of the same compound?
The MIC was > 32 µg/mL.

What about the MIC (E. faecium A491(Amp^R)) of the same compound?
The MIC was > 32 µg/mL.

And the MIC [6]?
The MIC was ≤ 0.06 µg/mL.

And the MIC [7]?
The MIC was 8 µg/mL.

Which MIC (E. faecium VanA(Van^R)) does the source give for `O=C(Cc1ccccc1)N[C@@H]1C(=O)N2C(C(=O)O)=C(Sc3snnc3CSC3CCNC3)CS[C@H]12` (stereo partly drawn) [Cmpd 6, (7R)-7-[(phenylacetyl)amino]-3-[4-(3-pyrrolidinothiomethyl)-1,2,3-thiadiazol-5-ylthio]-3-cephem-4-carboxylate, trifluoroacetic acid salt] here?
Its MIC is 8 µg/mL.

And the MIC (E. faecalis VanB(Van^R))?
Its MIC is 8 µg/mL.

And the MIC [1]?
The MIC was 8 µg/mL.

What about the MIC (E. coli ATCC 25992) of the same compound?
Its MIC is > 32 µg/mL.

And the MIC (S. aureus ATCC 29213)?
Its MIC is 0.25 µg/mL.

What about the MIC [2] of the same compound?
Its MIC is 16 µg/mL.

What about the MIC [3] of the same compound?
The MIC was 8 µg/mL.

What about the MIC [4] of the same compound?
The MIC was 8 µg/mL.

What about the MIC [9] of the same compound?
The MIC was ≤ 0.06 µg/mL.

And the MIC (E. faecium ATCC 35667)?
Its MIC is 2 µg/mL.

And the MIC [5]?
Its MIC is 0.5 µg/mL.

And the MIC (E. faecalis ATCC 29212)?
Its MIC is 0.5 µg/mL.

And the MIC (P. aeruginosa ATCC 27853)?
Its MIC is > 32 µg/mL.

What about the MIC (E. faecium A491(Amp^R)) of the same compound?
Its MIC is > 32 µg/mL.

What about the MIC [6] of the same compound?
Its MIC is 0.13 µg/mL.

What about the MIC [7] of the same compound?
The MIC was 2 µg/mL.
